Assay results: patent US6586393B2, “Antibiotics GE 23077, pharmaceutically acceptable salts and compositions, and use thereof” (priority 2000, dated 2003)
Read-outs that look alike come from different tables or passages of the source.

Assays:
[1] = molecular target: T1, E. coli RNA polymerase (Escherichia coli, UniProt P0A8T7+P0A8V2); test: Inhibition of RNA polymerase, cell free transcription assay (3H-UTP incorporation); format: biochemical; conditions: 37° C., 15 minutes
T1 construct: purchased Epicentre Technology; Madison Wis
Procedure: The inhibition of RNA polymerase was determined in a cell free transcription assay performed in standard U-bottom 96-well plates. The [H^3]-UTP incorporation in RNA was measured in the material precipitated upon addition of trichloroacetic acid (TCA). The reaction mixture contained 50 mM Tris-HCl (pH8), 50 mM KCl, 10 mM MgCl2, 0.1 mM EDTA, 5 mM dithiothreitol (DTT), 10 μg/ml BSA, 20: g/ml calf thymus DNA, 1 mM ATP, 1 mM CTP, 1 mM GTP, 0.5 mCi ^3H-UTP and 0.5 U of E. coli RNA polymerase enzyme (Epicentre Technology; Madison Wis.). 5 μl of the tested solution were added to 45 μl of reaction mixture, incubated at 37° C. for 15 minutes and then quenched with 150 μl of ice-cold 10% (w/v) TCA. After 30 min in ice, the well content was collected on glass-fiber filters (Filtermat A, Wallac) using a 96 wells cell harvester (Wallac) and radioactivity was determined in a β-Plate scintillation counter (Wallac). Count per min (CPM) values are transformed in % of RNA polymerase inhibition by using the following formula:
% of RNA polymerase=100−[(CPM compound−CPM blank)/(CPM control−CPM blank)]*100
where: CPM compound is CPM in well with compound; CPM blank is CPM average in wells without enzyme template and CPM control is CPM average in wells without compound.

[2] = tested on: M. catarrhalis; test: Activity of concentrated HPLC fractions of the complex against M. catarrhalis; format: cell-based, Moraxella catarrhalis; conditions: eluates of HPLC fractionation of the complex, concentrated under vacuum
[3] = Conversion of factors A2 and B2 into A1 and B1 in DMSO (NMR); format: physicochemical; conditions: room temperature
Text: The GE23077 complex is constituted of two couples of isomers: factors A1, A2 and factors B1, B2. It was observed that the individual pure Factor A1 and Factor A2, when kept in water solution or in mixtures of water miscible solvents and water solutions, reach an equilibrium state between them. […] The equilibration rate was accelerated at acidic and basic pHs. […] Accordingly, if recorded after complete conversion, the spectra relating to factors A2 and B2 correspond to the ones of the factors A1 and B1, respectively.

T1 sequence (P0A8V2 whole entry): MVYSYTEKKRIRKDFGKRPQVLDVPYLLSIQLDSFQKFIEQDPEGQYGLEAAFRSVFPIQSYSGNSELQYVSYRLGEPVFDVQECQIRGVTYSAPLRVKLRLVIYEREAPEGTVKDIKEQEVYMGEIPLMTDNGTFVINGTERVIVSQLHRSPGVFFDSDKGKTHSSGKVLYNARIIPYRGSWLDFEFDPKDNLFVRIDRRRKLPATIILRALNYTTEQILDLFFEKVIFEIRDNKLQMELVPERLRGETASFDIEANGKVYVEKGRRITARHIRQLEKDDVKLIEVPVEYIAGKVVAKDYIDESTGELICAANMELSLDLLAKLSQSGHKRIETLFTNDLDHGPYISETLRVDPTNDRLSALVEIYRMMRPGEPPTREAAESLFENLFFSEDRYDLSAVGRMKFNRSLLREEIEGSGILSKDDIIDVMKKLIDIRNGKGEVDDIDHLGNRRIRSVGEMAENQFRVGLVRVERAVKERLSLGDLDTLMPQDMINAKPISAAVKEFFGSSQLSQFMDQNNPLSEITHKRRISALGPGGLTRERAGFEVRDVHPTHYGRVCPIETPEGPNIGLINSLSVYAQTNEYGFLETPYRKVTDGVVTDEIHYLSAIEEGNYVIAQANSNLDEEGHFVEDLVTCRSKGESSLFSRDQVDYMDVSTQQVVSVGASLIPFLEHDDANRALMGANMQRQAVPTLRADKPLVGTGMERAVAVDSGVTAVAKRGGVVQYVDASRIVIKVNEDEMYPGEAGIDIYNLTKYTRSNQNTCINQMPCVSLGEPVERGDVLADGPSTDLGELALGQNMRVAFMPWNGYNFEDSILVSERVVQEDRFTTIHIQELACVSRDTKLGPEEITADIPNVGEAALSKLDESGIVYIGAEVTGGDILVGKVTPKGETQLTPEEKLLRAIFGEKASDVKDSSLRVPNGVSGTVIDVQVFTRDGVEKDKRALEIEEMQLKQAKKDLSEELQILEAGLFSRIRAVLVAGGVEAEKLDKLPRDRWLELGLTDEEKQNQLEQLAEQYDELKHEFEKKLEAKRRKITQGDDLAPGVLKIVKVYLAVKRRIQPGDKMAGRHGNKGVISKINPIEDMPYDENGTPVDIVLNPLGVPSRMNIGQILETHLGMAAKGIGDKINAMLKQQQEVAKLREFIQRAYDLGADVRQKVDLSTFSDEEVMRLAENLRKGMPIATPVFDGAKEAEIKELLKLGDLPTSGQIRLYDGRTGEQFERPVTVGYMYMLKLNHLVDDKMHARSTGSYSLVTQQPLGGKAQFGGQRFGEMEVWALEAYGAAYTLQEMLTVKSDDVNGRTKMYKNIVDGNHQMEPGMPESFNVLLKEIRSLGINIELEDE
T1 sequence (P0A8T7 whole entry): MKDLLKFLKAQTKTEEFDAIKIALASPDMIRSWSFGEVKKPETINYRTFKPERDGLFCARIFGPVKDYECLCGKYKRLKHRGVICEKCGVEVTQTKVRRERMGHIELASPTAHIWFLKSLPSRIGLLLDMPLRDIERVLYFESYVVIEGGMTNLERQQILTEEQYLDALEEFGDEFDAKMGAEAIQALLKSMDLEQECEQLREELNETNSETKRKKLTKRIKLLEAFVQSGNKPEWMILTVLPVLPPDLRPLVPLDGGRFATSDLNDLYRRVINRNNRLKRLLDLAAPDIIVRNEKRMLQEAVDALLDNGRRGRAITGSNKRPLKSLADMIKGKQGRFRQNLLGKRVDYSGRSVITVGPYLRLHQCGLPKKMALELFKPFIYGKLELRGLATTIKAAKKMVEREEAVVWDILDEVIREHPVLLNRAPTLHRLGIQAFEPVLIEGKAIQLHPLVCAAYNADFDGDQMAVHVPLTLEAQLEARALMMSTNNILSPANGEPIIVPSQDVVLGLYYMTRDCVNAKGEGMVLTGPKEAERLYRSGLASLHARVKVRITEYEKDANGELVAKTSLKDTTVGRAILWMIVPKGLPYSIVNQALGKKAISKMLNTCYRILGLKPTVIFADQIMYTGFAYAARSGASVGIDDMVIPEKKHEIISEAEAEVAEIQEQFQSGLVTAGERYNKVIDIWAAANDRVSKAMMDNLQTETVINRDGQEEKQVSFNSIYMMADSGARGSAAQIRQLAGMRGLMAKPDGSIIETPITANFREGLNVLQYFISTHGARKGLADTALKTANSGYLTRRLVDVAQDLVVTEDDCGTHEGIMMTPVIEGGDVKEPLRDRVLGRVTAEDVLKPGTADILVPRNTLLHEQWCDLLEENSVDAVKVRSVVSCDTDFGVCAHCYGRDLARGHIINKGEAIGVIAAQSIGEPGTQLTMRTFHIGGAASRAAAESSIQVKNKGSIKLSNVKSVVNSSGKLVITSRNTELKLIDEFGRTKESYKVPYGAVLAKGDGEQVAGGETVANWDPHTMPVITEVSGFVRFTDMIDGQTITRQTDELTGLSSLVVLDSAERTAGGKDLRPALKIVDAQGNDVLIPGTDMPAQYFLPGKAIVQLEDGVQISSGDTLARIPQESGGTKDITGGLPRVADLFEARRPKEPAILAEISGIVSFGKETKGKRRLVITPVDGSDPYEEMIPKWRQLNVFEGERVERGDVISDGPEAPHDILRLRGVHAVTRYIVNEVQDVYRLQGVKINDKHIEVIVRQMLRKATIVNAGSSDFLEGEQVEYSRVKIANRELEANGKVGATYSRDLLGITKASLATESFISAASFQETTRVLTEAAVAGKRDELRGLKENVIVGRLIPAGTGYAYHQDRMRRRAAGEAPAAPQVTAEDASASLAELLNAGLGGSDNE
T1 sequence (P0A7Z4 whole entry partner): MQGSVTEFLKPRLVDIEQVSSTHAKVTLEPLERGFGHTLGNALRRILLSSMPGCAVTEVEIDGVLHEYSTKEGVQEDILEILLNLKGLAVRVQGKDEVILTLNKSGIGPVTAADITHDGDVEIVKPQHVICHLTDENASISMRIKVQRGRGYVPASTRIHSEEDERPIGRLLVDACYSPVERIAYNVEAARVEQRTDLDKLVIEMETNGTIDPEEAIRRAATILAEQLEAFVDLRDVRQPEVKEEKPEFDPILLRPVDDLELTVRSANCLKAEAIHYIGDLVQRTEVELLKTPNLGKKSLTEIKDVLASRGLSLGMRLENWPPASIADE
T1 sequence (P0A800 whole entry partner): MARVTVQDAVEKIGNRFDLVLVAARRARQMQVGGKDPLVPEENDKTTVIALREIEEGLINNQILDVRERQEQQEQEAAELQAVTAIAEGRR

Row | Structure (SMILES) | IC50 ([1]; IC50 of E. coli RNA polymerase) | Inhibition of M. catarrhalis by HPLC fractions containing the separated factors [2] | Time for full conversion into factor A1 / B1 [3] | Time for full conversion into factor A1 / B1 (in words) [3] | IC50 ([1]; read-out: IC50 of E. coli RNA polymerase (converted))
1 | CC=C(C)C(=O)NCC1NC(=O)C(C(=O)O)NC(=O)C(O)CNC(=O)C(C(C)O)NC(=O)C(C(O)C(O)C(N)=O)NC(=O)C(C(C)C)NC(=O)C(CO)NC1=O (single isomer, unassigned) [Factor A1] | 187 nM | inhibited the test microorganism |  |  | 
2 | CC=C(C)C(=O)NCC1NC(=O)C(C(=O)O)NC(=O)C(O)CNC(=O)C(C(C)O)NC(=O)C(C(O)C(O)C(N)=O)NC(=O)C(C(C)C)NC(=O)C(CO)NC1=O (single isomer, unassigned) [Factor A2] | 43.5 nM | inhibited the test microorganism | 12 h |  | 
3 | CC(C)CC(=O)NCC1NC(=O)C(C(=O)O)NC(=O)C(O)CNC(=O)C(C(C)O)NC(=O)C(C(O)C(O)C(N)=O)NC(=O)C(C(C)C)NC(=O)C(CO)NC1=O (single isomer, unassigned) [Factor B1] | 124 nM | inhibited the test microorganism |  |  | 
4 | CC(C)CC(=O)NCC1NC(=O)C(C(=O)O)NC(=O)C(O)CNC(=O)C(C(C)O)NC(=O)C(C(O)C(O)C(N)=O)NC(=O)C(C(C)C)NC(=O)C(CO)NC1=O (single isomer, unassigned) [Factor B2] |  | inhibited the test microorganism |  | few minutes | 24.8 nM
